Reference: patent US7763657B2, “Compounds, isomer thereof, or pharmaceutically acceptable salts thereof as vanilloid receptor antagonist; and pharmaceutical compositions containing the same” (Amorepacific Corporation, priority 2005, dated 2010)

Columns and labels:
Male ICR mice = test: Analgesic activity test: mouse writhing test by inducing with phenyl-p-quinone; assay type: in vivo; settings: ip, 0.5 h, number of writhes vs control, read-out: Analgesic effect (% Inhibition); for inhibition in vivo at 1 mg/kg: Dose 1 mg/kg intraperitoneally 30 min before phenyl-p-quinone
Procedure: 3. Analgesic Activity Test: Mouse Writhing Test by Inducing with phenyl-p-quinone
Male ICR mice (mean body weight 25 g) were maintained in a controlled lighting environment (12 h on/12 h off) for experiment. Animals received an intraperitoneal injection of 0.3 ml of the chemical irritant phenyl-p-quinone (dissolved in saline containing 5% ethanol to be a dose of 4.5 mg/kg) and 6 mins later, the number of abdominal constrictions was counted in the subsequent 6 mins period. Animals (10 animals/group) received 0.2 ml of test compounds solution in vehicle of ethanol/Tween 80/saline (10/10/80) intraperitoneally 30 min before the injection of phenyl-p-quinone. A reduction in the number of writhes responding to the test drug compound relative to the number responding in saline control group was considered to be indicative of an analgesic effect. Analgesic effect was calculated by % inhibition equation (% inhibition=(C−T)/C×100), wherein C and T represent the number of writhes in control and compound-treated group, respectively (Table 3).

vanilloid receptor = target: T1, vanilloid receptor (Rattus norvegicus, UniProt O35433); test: 45Ca influx test (calcium uptake) in primary cultured DRG neurons, antagonism of capsaicin; assay type: cell-based; settings: neonatal SD rat DRG nerve cells; capsaicin 0.5 μM; 45Ca 10 μCi/ml; 10 mins room temperature; read-out: Antagonist Calcium Uptake Test (IC50)
T1 construct: DRG nerve cells from the primary culture of 2 days were equilibrated; endogenous in cells; host or cells: primary cultured dorsal root ganglion neurons of neonatal SD rats
T1 sequence (O35433 whole entry): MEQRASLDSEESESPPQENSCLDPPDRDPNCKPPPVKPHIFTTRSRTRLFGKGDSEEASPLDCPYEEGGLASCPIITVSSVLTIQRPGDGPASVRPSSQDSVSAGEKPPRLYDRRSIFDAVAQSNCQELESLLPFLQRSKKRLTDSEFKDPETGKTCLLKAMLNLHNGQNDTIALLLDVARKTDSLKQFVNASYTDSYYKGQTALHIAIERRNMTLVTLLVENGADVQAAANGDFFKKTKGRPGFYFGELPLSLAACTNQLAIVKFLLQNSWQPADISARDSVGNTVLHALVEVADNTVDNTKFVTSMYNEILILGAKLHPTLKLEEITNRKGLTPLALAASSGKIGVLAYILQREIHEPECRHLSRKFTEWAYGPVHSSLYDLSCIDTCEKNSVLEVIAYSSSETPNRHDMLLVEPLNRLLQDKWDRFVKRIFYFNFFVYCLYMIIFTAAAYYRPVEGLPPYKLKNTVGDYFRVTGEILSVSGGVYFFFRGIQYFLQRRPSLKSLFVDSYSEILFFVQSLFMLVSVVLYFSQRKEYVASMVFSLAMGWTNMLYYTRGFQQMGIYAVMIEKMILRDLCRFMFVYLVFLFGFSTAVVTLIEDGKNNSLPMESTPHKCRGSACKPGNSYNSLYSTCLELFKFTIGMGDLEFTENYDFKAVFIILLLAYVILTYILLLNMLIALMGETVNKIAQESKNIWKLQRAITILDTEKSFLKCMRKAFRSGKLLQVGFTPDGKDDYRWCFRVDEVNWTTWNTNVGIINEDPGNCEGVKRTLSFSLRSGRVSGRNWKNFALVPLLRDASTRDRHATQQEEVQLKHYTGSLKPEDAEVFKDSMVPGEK
Procedure: 1) Separation of Spinal Dorsal Root Ganglia (DRG) in Newborn Rats and Primary Culture Thereof
Neonatal (2-3 day old or younger than 2-3 day old) SD rats were put in ice for 5 minutes to anesthetize and disinfected with 70% ethanol. […] The DRG were incubated sequentially at 37° C. for 30 min in 200 U/ml collagenase and 2.5 mg/ml trypsin, separately. The ganglia were washed twice with DME/F12 medium supplemented with 10% horse serum, triturated through a fire-polished Pasteur pipette, filtered through Nitex 80 membrane to obtain single cell suspension and the suspension was washed once more. This was subjected to centrifugation, then resuspended in cell culture medium at certain level of cell density. As the cell culture medium, DME/F12 medium supplemented with 10% horse serum was diluted with identical medium conditioned by C6 glioma cells 2 days on a confluent monolayer (1:1), and NGF (Nerve Growth Factor) was added to adjust 200 ng/ml as final concentration. After the cells were grown 2 days in medium where cytosine arabinoside (Ara-C, 100 μM) was added to kill dividing nonneuronal cells, medium was changed to one without Ara-C. The resuspended cells were plated at a density of 1500-2000 neurons/well onto Terasaki plates previously coated with 10 μg/ml poly-D-ornithine.
2) ^45Ca Influx Experiments
DRG nerve cells from the primary culture of 2 days were equilibrated by washing 4 times with HEPES (10 mM, pH 7.4)-buffered Ca^2+, Mg^2+-free HBSS (H—HBSS). The solution in each well was removed from the individual well. Medium containing the test compound plus capsaicin (final concentration 0.5 μM) and ^45Ca (final concentration 10 μCi/ml) in H—HBSS was added to each well and incubated at room temperature for 10 mins. Terasaki plates were washed five times with H—HBSS and dried at room temperature. To each well, 0.3% SDS (10 μl) was added to elute ^45Ca. After the addition of scintillation cocktail of into each well, the amount of ^45Ca influx into neuron was measured by counting radioactivity.

| SMILES | inhibition in vivo at 1 mg/kg (Male ICR mice) [%] | IC50 (vanilloid receptor) [nM] | inhibition in vivo at 0.3 mg/kg (Male ICR mice; Dose 0.3 mg/kg intraperitoneally 30 min before phenyl-p-quinone) [%] |
| --- | --- | --- | --- |
| C=Cc1cc(CNC(=O)CCc2ccc(C(C)(C)C)cc2)ccc1NS(C)(=O)=O [Example 45, 3-[4-(tert-butyl)phenyl]-N-[4-(methanesulfonylamino)-3-vinylbenzyl]propionamide] | 82 | 63 |  |
| C=Cc1cc(CNC(=O)/C=C/c2ccc(C(C)(C)C)cc2N2CCN(C)CC2)cc(F)c1NS(C)(=O)=O [Example 25, 3-[4-tert-Butyl-2-(4-methylpiperazin-1-yl)phenyl]-N-(3-fluoro-4-methanesulfonylamino-5-vinylbenzyl)acrylamide] | 64 |  |  |
| C=Cc1cc([C@@H](C)NC(=O)/C=C/c2ccc(C(C)(C)C)cc2)ccc1NS(C)(=O)=O [Example 14, 3-(4-t-butylphenyl)-N-[1-(R)-(4-methanesulfonylamino-3-vinylphenyl)ethyl]acrylamide] | 58 | 50 |  |
| C=Cc1cc(CNC(=O)CCc2ccc(C(C)(C)C)cc2)cc(F)c1NS(C)(=O)=O [Example 46, 3-[4-(tert-butyl)phenyl]-N-[3-fluoro-4-(methanesulfonylamino)-5-vinylbenzyl]propionamide] | 43 | 25 |  |
| C#Cc1cc(CNC(=O)/C=C/c2ccc(C(C)(C)C)cc2)cc(F)c1NS(C)(=O)=O [Example 16, 3-(4-t-butylphenyl)-N-(3-fluoro-5-ethynyl-4-methanesulfonylamino-benzyl)acrylamide] | 68 | 47 |  |
| C=Cc1cc(CNC(=O)NCc2ccc(C(C)(C)C)cc2)cc(F)c1NS(C)(=O)=O [Example 2, N-{4-[3-(4-t-butylbenzyl)ureidomethyl]-2-fluoro-6-vinylphenyl}methanesulfonamide] |  | 98 | 57 |
| C=Cc1cc(CNC(=O)/C=C/c2ccc(C(C)(C)C)cc2)ccc1NS(C)(=O)=O [Example 17, 3-(4-t-butylphenyl)-N-(4-methanesulfonylamino-3-vinylbenzyl)acryl amide] | 63 | 58 |  |
| C=Cc1cc(CNC(=O)/C=C/c2ccc(C(C)(C)C)cc2)cc(F)c1NS(C)(=O)=O [Example 15, 3-(4-t-butylphenyl)-N-(3-fluoro-4-methanesulfonylamino-5-vinylbenzyl)acrylamide] | 60 | 34 |  |
| C=Cc1cc([C@@H](C)NC(=O)NCc2ccc(C(C)(C)C)cc2)ccc1NS(C)(=O)=O [Example 6, N-(4-{1-(R)-[3-(4-t-butylbenzyl)ureido]ethyl}-2-vinylphenyl)methanesulfonamide] | 56 | 82 |  |
| C=Cc1cc(CNC(=O)CCc2ccc(C(C)(C)C)cc2OC2CCOCC2)cc(F)c1NS(C)(=O)=O [Example 41, 3-[4-tert-Butyl-2-(tetrahydropyran-4-yloxy)phenyl]-N-(3-fluoro-4-methanesulfonylamino-5-vinylbenzyl)propionamide] | 44 | 43 |  |
| C=Cc1cc(CNC(=O)/C=C/c2ccc(C(C)(C)C)cc2NCCC(C)C)cc(F)c1NS(C)(=O)=O [Example 32, 3-[4-tert-butyl-2-(3-methylbutylamino)phenyl]-N-(3-fluoro-4-methanesulfonylamino-5-vinylbenzyl)acrylamide] |  | 490 |  |
| C=Cc1cc([C@@H](C)NC(=O)/C(C)=C/c2ccc(C(C)(C)C)cc2)ccc1NS(C)(=O)=O [Example 42, (R)-3-(4-tert-Butylphenyl)-N-[1-(4-methanesulfonylamino-3-vinylphenyl)ethyl]-2-methylacrylamide] |  | 22 |  |
| C=Cc1cc(CNC(=O)/C=C/c2ccc(C(C)(C)C)cc2OC2CCOCC2)cc(F)c1NS(C)(=O)=O [Example 40, 3-[4-tert-Butyl-2-(tetrahydropyran-4-yloxy)phenyl]-N-(3-fluoro-4-methanesulfonylamino-5-vinylbenzyl)acrylamide] |  | 290 |  |
